Columns and labels:
[1] = test system: chick embryonic spinal motorneurons; assay: Survival of chick embryonic spinal motorneurons in culture; format: cell-based; set-up: key to Survival: −: not significantly different from control (survival: 8.3 ± 3.8%, mean ± SD, n = 18); ±: about 15-20% (statistically significant from each blank control, p < 0.01); + +: about 35-55%; + ++: about 55-75%; details: for Survival / Motoneuron survival (%): after 3 days in culture; for Survival: one concentration per molecule, Table VI, CNTF rat, rec.; for survival effect on motoneurons: supramaximal concentrations, NT-3 produced by transfected Cos-cells; for highest survival effect of the concentration-response curve: CNTF = recombinant rat; for Motoneuron survival (%): mean ± SEM (n = 4), IGF-I 1 μg/ml, Basic FGF 30 ng/ml, CNTF 1.5 ng/ml
Method: Motorneuron columns were dissected under a stereomicroscope from the lumbar part of the spinal cord of chick embryos on the 6th day of embryonic development and stored in cold calcium and magnesium-free Hanks balanced salt solution supplemented with glucose (4 g/l) (HBSS). The tissues were washed with HBSS and treated with 0.03% trypsin in HBSS at 37° C. for 20 min with gentle shaking, rinsed with cold HBSS and triturated mildly in 3 steps of 8-passage agitation in 1 ml of cold 0.1% soybean trypsin inhibitor (Sigma) in HBSS through a fire-polished siliconized Pasteur pipette. Each supernatant cell suspension was filtered through 50 μm-Nylon mesh, pooled and layered onto 4 ml of cold 6.8% metrizamide (Fluka) in HBSS-25 mM HEPES (pH7.4) in a 12 ml-siliconized conical glass tube. The tube was centrifuged at 400 g for 15 min at 4° C. and the intermediate layer (0.5 ml) was collected into another siliconized tube containing 6.5 ml of cold culture medium (a mixture of glucose (4 g/l)-supplemented Leibovitz's L-15 medium (Gibco), 0.15 M sodium bicarbonate, heat-inactivated and filtered horse serum and penicillin G (10^5 units/ml) at the ratio of 75:15:10:0.1, freshly prepared and buffered with 5% CO2.) After centrifugation at 100×g for 7 min at 4° C., the supernatant was removed and the cells were gently resuspended in culture medium and plated in Greiner 4-well culture dishes (well diameter, 10 mm; C. A. Greiner und Sohne GmbH, Nurtingen, West Germany) at 1000-2000 cells/well. The dishes had been precoated with poly-DL-ornithine (Sigma, 0.5 mg in 0.15 M sodium borate buffer (pH 8.3) overnight at 4° C., rinsed twice with phosphate-buffered saline (PBS) and subsequently coated with laminin (Gibco; 10 μg/ml in the serum-depleted culture medium) and placed in a 5% CO2-incubator until cell plating (5-6 hrs). Cells were incubated at 37° C. in a humidified 5% CO2- and 95% air-incubator. Samples were added one hr after plating and the culture medium changed after 24 hrs and 72 hrs. The initial cell numbers were counted 3 hrs after plating.
In some experiments motor neurons were retrogradely labeled with a fluorescent dye in vivo before cell preparation (U. Dohrman et al., 1986, Dev. Biol. 118:209-221) to identify the motor neuron cell population. A small hole was made in the shell of eggs which had been incubated for 5 days. Small pieces of rhodamine isothiocyanate crystals (Sigma) were inserted at two or three places into each hind limb thigh and the egg hole was sealed with a cellophane tape. The eggs were incubated for another 24 hrs. Some of the operated embryos were then processed for frozen sections after formaldehyde fixation. […] The other embryos were used for cell preparation using the method described above (18.1.1). After 5 hrs in culture cells were rinsed with warm HBSS, fixed with 4% formaldehyde in PBS at room temperature for 20 min, rinsed with PBS and then mounted in glycerol-PBS (1:1) with glass coverslips. Of the total cells approximately 83% were labeled and identified as motorneurons (FIG. 42.) Most of these labeled motorneurons were large cells and the rest were intermediate-size cells. No small cells were labeled. On the other hand, in experiments in which cells were not labeled with a fluorescent dye about 70% of the total cells were large phase-bright cells with round cell somas, about 20% were intermediate-size neurons (most of them may be motorneurons) and about 10% were small immature neurons (they have neuron-like processes with growth cones but have phase-dark semi-flat cell somas). Non-neuronal cells were either not present or accounted for less than 2%. Taken together, one may conclude that at least 83% of the cells are motorneurons while the remainder consists of non-labeled motorneurons, a small number of unidentified intermediate-size neurons and about 10% immature small neurons. […]

[2] = test system: E8 chick ciliary ganglion neurons; assay: Survival of dissociated E8 chick ciliary ganglion neurons; format: cell-based; details: cultured two days with a range of peptide concentrations
Source text: Ciliary neurotrophic factor activity may be evaluated using any CNTF-sensitive in vivo or in vitro system known in the art. For example, and not by way of limitation, in vitro systems have been developed which measure CNTF activity by quantitating 24-hour survival of embryonic (E8) chick ciliary ganglion (CG) neurons in monolayer cultures.
For example, ciliary ganglia may be collected from E8 chick embryos, dissociated (yielding approximately 20,000 cells per ganglion) and then diluted in HEBM medium containing 20 percent horse serum as described in Varon et al. (1979, Brain Res. 173:29-45). […] Culture plates may then be maintained at 37° C. in 5% CO2 for 24 hours, after which the cultures may be fixed by the addition of 200 μl 2 per cent glutaraldehyde in HEBM medium, and the number of surviving neurons may be determined visually by direct count under phase contrast microscopy. […]
Biological activity of recombinant CNTF was assayed on explants of chick embryo dorsal root ganglia (DRG) and dissociated cultures of ciliary ganglion (CG) neurons as described in Lindsay and Rohrer (1985, Devel. Biol 112:30-48). […] In explant cultures CNTF activity was determined by assessing the extent of fiber outgrowth in treated cultures compared to controls. Fiber outgrowth was scored on a scale of 0 to 5+, by comparing cultures to photographs of a dose-response of explanted DRG and NGF. […]

hippocampal neurons = assay: Glutamate-induced toxicity in hippocampal cultures (MTT assay); format: cell-based, rat; details: glutamate 1 mM for 15 minutes, MTT after 20 h
Method: FIG. 38. Protective effect of CNTF on glutamate-induced toxicity in hippocampal cultures. […] Glutamate at various concentations (100-1000 uM) was added for 15 minutes, after which the cells were cultured in the absence of glutamate or CNTF for 20 h. Survival of cells at the end of the culture period was assessed by MTT assay based on the conversion of MTT (3-(4,5-dimethylthiazol-2-yl)-2,5-diphenyl tetrazolium bromide) to a purple product by vital cells. MTT dye was added to a final concentration of 0.5 mg/ml. Dyes taken up by live cells were solubilized by the addition of 0.08N HCI in isopropranol 5 hours later, and O.D. (570-650 nm) was measured.
The effect of CNTF on GABAergic neurons was dependent on the density at which the cells were plated. […] This may be due to an elevated level of neurotrophic factors in high density cultures. […] We have assessed the neurotoxic effects of various concentrations of glutamate (10-1000 μM) by means of a calorimetric MTT assay, as shown in FIG. 38. At a concentration of 1 mM, glutamate reduced cell survival to approximately 10%. In the presence of CNTF ([…]), cell survival following exposure to glutamate was enhanced.

In the case of IL-1β: IL-1β (human, rec.), the Survival [1] is reported as “−” and the “survival effect on motoneurons” value [1] is reported as “no discernable effect”.

With Acidic FGF: acidic FGF (human, rec.) the “concentration at which the highest survival effect was obtained” value ([1]; 3 days in culture) was 300 ng/mL, the “concentration at which the highest survival effect was obtained, in the presence of 1 μg/ml heparin” value ([1]; 3 days in culture) was 100 ng/mL and the “highest survival effect of the concentration-response curve” value ([1]; 3 days in culture) was 18%. The “highest survival effect of the concentration-response curve, in the presence of 1 μg/ml heparin” value ([1]; 3 days in culture, heparin only first 24 hr) was 35% and the Survival [1] was “± (about 15-20% (statistically significant from each blank control, p < 0.01))”.

“IGF-I: insulin-like growth factor I (human, rec.)” was tested, and the “concentration at which the highest survival effect was obtained” value ([1]; 3 days in culture) was 100 ng/mL, the “highest survival effect of the concentration-response curve” value ([1]; 3 days in culture) was 15% and the “Motoneuron survival (%)” value [1] was 14.5 ± 0.5 %. The Survival [1] was “± (about 15-20% (statistically significant from each blank control, p < 0.01))”.

In the case of “Basic FGF: basic fibroblast growth factor (human, rec.)”, the “concentration at which the highest survival effect was obtained” value ([1]; 3 days in culture) is reported as 30 ng/mL, the “highest survival effect of the concentration-response curve” value ([1]; 3 days in culture) is reported as 51% and the “Motoneuron survival (%)” value [1] is reported as 51.9 ± 3.6%. The Survival [1] was “+ + (about 35-55%)” and the EC50 ([1]; motorneuron survival, 3 days in culture) was 0.26 ng/mL.

With TGFβ1: TGFβ1 (porcine, rec.) the Survival [1] was “−” and the “survival effect on motoneurons” value [1] was “no discernable effect”.

Insulin: Insulin (bovine) was tested, and the “concentration at which the highest survival effect was obtained” value ([1]; 3 days in culture) was 25000 ng/mL, the “highest survival effect of the concentration-response curve” value ([1]; 3 days in culture) was 16% and the Survival [1] was “± (about 15-20% (statistically significant from each blank control, p < 0.01))”.

In the case of “MVLLEQKIPENEADGMPATVGDGGLFEK (MVLLEQKIPENEADGMPATVGDGGLFEK) [28 amino acid synthetic peptide fragment]”, the “neurotrophic activity (neuronal survival)” value [2] is reported as “A dose-response relationship was observed”.

In the case of TGFa: TGFa (human, rec.), the Survival [1] is reported as “−” and the “survival effect on motoneurons” value [1] is reported as “no discernable effect”.

For PDGF, the Survival [1] was “−” and the “survival effect on motoneurons” value [1] was “no discernable effect”.

With Transferrin: Transferrin (human) the Survival [1] was “−”.

“IGF-II: insulin-like growth factor II (human, rec.)” was tested, and the “concentration at which the highest survival effect was obtained” value ([1]; 3 days in culture) was 300 ng/mL, the “highest survival effect of the concentration-response curve” value ([1]; 3 days in culture) was 15% and the Survival [1] was “± (about 15-20% (statistically significant from each blank control, p < 0.01))”.

`N[C@@H](CCC(=O)O)C(=O)O` [glutamate, reference compound] was tested, and the “cell survival after glutamate” value (hippocampal neurons) was “approximately 10%”.
